Laboratory results published in ChEMBL document CHEMBL1201862, “PubChem BioAssay data set” (2004).
Calls of active or inactive are those of the source.

What was measured:
[1] = luciferase reporter signal suppression in cells – H4 neuroglioma cells, luminescence, dose response (AID 1990); assay type: functional, cell-based
[2] = luciferase reporter signal reduction – luminescence, H4-C neuroglioblastoma cells, dose response (AID 2458); assay type: functional, cell-based;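 note: H4 neuroglioblastoma cells stably carrying a luciferase reporter gene fusion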
cells = assay type: functional, cell-based
[3] = Luminescence Cell-Based Dose Response HTS to Identify Inhibitors of 5'UTR Stem-Loop Driven Prion Protein mRNA Translation in H4 Neuroglioblastoma Cells. [Related pubchem assays: 1827 (Project Summary), 1813 (Primary HTS)]; assay type: functional
[4] = target: T1, Heat shock factor protein 1 (Mus musculus, UniProt P38532); experiment: decrease of HSF1-responsive luciferase luminescence – cell-based, NIH3T3, dose retest, confirmation (AID 2382); assay type: functional;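 note: NIH3T3 fibroblasts with HSF1-driven luciferase reporter stressed by proteasome inhibitor MG132; luminescence from HSF1-driven luciferase expression after 8 hours of MG132 stress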
T1 sequence (P38532 whole entry): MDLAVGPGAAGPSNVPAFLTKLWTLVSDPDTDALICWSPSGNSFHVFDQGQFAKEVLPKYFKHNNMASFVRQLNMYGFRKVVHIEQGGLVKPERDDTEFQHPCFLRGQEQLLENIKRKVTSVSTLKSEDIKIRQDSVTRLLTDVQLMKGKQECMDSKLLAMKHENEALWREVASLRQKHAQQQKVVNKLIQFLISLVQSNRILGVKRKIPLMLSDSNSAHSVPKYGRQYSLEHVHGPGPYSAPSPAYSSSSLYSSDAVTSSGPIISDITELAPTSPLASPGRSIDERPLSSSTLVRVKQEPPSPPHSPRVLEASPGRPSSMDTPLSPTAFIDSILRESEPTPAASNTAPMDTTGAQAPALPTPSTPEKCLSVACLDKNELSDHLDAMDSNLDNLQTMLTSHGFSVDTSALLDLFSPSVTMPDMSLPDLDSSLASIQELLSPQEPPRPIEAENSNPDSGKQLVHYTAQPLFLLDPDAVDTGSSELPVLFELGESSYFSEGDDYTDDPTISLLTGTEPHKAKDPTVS

[5] = alpha-synuclein stem-loop luciferase translation blockers – H4 neuroglioma cells, luminescence, confirmation (AID 1988); assay type: functional, cell-based
[6] = alpha-synuclein stem-loop translation blockers – luminescence, H4 neuroglioblastoma cells, dose confirmation, confirmation (AID 2454); assay type: functional, cell-based;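 note: H4 neuroglioblastoma cells carrying an alpha-synuclein 5'UTR luciferase reporter; potency for inhibition of the luciferase signal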
[7] = HEK-293T viability loss after treatment – luminescence, T-cell screen hits, cytotoxicity control for TCR NF-kB inhibitor project, dose response (AID 489026); assay type: functional, cell-based;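 note: cells exposed to compound about 14 hours before the viability readout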
[8] = target: Heat shock protein HSP 90-alpha (Homo sapiens, UniProt P07900); experiment: Luminescence-based dose response biochemical high throughput screening assay for inhibitors of the Heat Shock Protein 90 (HSP90). [Related pubchem assays: 1831 (Summary AID.), 1846 (Confirmation screen.), 1789 (Primary screen.)]
[9] = CCR5-tropic HIV-1 fusion blockers – cell-based, CCR5-tropic Env, dose response (AID 2279); assay type: functional
[10] = target: T2, Microphthalmia-associated transcription factor (Homo sapiens, UniProt O75030); experiment: reducers of TRPM1 reporter luminescence, concentration series – cell-based, SK-MEL-5, cherry-picked, set 3, MITF inhibitor project, dose response (AID 493073); assay type: functional;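 note: SK-MEL-5 melanoma cells with luciferase driven by the MITF target TRPM1 promoter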
T2 sequence (O75030 whole entry): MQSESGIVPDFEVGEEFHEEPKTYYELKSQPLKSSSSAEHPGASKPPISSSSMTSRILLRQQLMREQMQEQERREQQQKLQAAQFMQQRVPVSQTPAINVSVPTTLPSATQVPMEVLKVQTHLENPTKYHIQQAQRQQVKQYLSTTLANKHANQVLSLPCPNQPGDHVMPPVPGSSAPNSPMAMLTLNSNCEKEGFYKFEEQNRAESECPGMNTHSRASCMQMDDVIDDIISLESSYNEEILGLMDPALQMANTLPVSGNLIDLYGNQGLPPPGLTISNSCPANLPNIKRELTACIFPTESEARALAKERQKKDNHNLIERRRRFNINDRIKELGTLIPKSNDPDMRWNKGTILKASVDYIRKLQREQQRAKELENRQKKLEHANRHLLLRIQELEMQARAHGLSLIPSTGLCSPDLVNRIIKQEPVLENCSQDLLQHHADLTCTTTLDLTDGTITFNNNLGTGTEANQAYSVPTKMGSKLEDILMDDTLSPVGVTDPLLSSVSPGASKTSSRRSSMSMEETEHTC

[11] = viability loss in THP-1 monocytes – THP-1 cells, cytotoxicity control for Vif-APOBEC3G degradation inhibitor project, dose response (AID 1117359); assay type: functional; conditions: THP-1
[12] = target: Voltage-gated inwardly rectifying potassium channel KCNH2 (Homo sapiens, UniProt Q12809); experiment: concentration-dependent hERG rescue from blockers – cell-based, thallium flux, dose response (AID 2121); assay type: ADME
[13] = A Cell Based Secondary Assay To Explore Cytotoxicity of Compounds that Sensitize Mycobacterium Tuberculosis to Beta-Lactam Antibiotics.; assay type: functional
[14] = target: T3, Mannose-6-phosphate isomerase (Homo sapiens, UniProt P34949); experiment: MPI inhibition at elevated mannose 6-phosphate – biochemical, fluorescence intensity, high mannose 6-phosphate, primary screen (AID 1220)
T3 sequence (P34949 whole entry): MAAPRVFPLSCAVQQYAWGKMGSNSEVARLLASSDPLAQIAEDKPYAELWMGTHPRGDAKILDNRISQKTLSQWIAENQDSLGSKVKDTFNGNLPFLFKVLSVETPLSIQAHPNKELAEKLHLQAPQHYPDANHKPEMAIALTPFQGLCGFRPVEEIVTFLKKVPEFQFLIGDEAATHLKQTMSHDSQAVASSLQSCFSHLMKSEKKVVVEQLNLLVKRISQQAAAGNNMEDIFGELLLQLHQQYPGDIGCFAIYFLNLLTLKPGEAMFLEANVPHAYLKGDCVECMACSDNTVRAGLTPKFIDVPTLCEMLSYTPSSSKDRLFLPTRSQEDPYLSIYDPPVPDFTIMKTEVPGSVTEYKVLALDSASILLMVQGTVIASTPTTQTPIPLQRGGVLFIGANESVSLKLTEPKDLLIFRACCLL

[15] = target: DNA dC->dU-editing enzyme APOBEC-3G (Homo sapiens, UniProt Q9HC16); experiment: Dose Response confirmation of small molecule APOBEC3G DNA Deaminase Inhibitors via a fluorescence-based single-stranded DNA deaminase assay. [Related pubchem assays (depositor defined):AID493012, AID493028]; assay type: functional
[16] = target: T3, Mannose-6-phosphate isomerase; experiment: MPI enzyme activity inhibition – biochemical, fluorescence intensity, coupled assay, primary screen (AID 1209)

Sequence of Voltage-gated inwardly rectifying potassium channel KCNH2 (Q12809 whole entry): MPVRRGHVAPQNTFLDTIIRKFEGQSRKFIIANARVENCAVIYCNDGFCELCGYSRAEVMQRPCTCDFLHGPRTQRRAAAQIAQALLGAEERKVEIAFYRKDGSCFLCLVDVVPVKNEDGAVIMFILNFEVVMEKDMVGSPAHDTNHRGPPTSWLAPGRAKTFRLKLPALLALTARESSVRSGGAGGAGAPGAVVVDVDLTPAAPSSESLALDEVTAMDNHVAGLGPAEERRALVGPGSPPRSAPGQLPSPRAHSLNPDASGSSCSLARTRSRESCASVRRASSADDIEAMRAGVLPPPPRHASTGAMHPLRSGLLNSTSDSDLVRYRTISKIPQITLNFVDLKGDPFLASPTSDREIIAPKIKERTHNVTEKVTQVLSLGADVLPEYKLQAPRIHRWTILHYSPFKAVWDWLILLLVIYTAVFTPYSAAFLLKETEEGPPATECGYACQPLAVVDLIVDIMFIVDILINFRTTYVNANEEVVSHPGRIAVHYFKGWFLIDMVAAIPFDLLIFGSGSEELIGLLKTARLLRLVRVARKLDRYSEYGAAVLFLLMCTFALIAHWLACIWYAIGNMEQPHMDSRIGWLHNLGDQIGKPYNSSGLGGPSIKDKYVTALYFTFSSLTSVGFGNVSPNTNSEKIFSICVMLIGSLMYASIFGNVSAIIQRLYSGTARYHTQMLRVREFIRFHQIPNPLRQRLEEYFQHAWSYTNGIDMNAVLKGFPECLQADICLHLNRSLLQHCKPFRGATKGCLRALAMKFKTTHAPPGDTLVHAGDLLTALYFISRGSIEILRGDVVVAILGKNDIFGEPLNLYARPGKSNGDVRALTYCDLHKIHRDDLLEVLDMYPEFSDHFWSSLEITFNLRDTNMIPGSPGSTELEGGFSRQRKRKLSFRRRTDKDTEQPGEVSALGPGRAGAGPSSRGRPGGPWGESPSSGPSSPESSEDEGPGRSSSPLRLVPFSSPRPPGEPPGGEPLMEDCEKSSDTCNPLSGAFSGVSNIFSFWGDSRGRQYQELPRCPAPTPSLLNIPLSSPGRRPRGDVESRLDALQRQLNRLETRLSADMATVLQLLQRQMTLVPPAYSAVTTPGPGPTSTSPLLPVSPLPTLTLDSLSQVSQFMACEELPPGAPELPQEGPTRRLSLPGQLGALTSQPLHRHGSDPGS
Sequence of DNA dC->dU-editing enzyme APOBEC-3G (Q9HC16 whole entry): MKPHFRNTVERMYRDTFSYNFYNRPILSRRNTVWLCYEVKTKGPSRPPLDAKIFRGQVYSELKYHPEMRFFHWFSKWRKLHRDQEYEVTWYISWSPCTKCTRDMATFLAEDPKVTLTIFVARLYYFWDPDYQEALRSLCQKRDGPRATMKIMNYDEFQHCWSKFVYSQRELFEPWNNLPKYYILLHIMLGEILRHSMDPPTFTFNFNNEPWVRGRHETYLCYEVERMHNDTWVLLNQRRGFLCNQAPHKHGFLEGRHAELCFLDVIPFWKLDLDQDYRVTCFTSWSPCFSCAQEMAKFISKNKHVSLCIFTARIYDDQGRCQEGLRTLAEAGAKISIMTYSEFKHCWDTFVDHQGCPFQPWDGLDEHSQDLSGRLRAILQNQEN

Cc1nn(-c2ccccc2Cl)c(Cl)c1/C=N/Nc1nc2ccccc2s1
EC50 [1]: < 0.1 µM (active)
EC50 [2]: 0.086 µM (active)
EC50 (cells): 0.036 µM (active)
EC50 [3]: < 0.1 µM (active)
EC50 [4]: < 0.16 µM (active)
EC50 [5]: < 0.1 µM (active)
EC50 [6]: 0.1 µM (active)
IC50 [7]: > 80 µM (inactive)

Cc1cccc(N(O)C(=O)Nc2cccc(Cl)c2)c1
IC50 [8]: 5.44 µM (active)

COc1cc(/C=N/NS(=O)(=O)c2ccc3ccccc3c2)ccc1OCc1ccc(C(=O)O)cc1
EC50 [1]: 9.11 µM (inconclusive)
EC50 [3]: 10.5 µM (active)
EC50 [5]: 7.05 µM (active)
IC50 [9]: 23.6 µM (active)
AC50 [10]: 4.78 µM (active)

CCOC(=O)C1CCN(C(=O)c2ccc3snnc3c2)CC1
CC50 [11]: > 40 µM (active)

COC(=O)c1c(NS(=O)(=O)c2ccc3ccccc3c2)sc2c1CCCC2
EC50 [12]: 7.18 µM (active)

Cc1cccc(OCc2n[nH]c(-c3ccccn3)n2)c1
CC50 [13]: 28 µM (active)

O=C(/C=C/c1ccccc1)Nc1cccc(S(=O)(=O)Nc2ccccc2F)c1
IC50 [14]: 20 µM (active)
IC50 [15]: 31.9 µM (active)

O=C(NC(=S)Nc1nc2c(s1)CSc1ccccc1-2)c1ccccc1
IC50 [16]: > 50 µM (not active)
EC50 [12]: 5.11 µM (active)
IC50 [14]: > 50 µM (not active)
